pIC50: −log10 of the molar value.

The target in the first assay is T1, SMYD2 (Homo sapiens, UniProt Q9NRG4).
T1 construct: Full length SMYD2 (NP 064582.2) was cloned; His6 (N, cleaved yes); FLAG (N); made in house; host or cells: Sf9 insect cells
T1 sequence (Q9NRG4 whole entry): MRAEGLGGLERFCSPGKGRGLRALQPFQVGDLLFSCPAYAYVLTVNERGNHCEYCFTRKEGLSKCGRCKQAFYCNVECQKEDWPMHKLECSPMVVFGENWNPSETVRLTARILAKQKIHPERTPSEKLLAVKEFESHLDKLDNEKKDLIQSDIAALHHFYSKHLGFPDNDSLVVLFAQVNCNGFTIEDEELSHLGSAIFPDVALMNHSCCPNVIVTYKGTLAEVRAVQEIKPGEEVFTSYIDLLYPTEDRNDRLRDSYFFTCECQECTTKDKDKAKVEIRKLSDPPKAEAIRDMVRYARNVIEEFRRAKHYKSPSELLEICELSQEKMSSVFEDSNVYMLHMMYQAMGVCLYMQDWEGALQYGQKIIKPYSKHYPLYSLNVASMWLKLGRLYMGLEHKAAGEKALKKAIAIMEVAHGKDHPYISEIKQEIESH
As to the kind of experiment: SMYD2 Biochemical Assay (3H-SAM, biotinylated peptide substrate, Flashplate). The following applies: IC50 values are an average of n = 1 to n = 50; read-out: SMYD2 Biochem IC50 (μM)*. The gist of the method:
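Full-length His/FLAG-tagged SMYD2 expressed in Sf9 cells with tag cleaved, 1.5 nM, pre-incubated 30 min at room temperature with compound, then 10 nM 3H-SAM and 60 nM biotinylated peptide added. Buffer 20 mM Bicine pH 7.6, 1 mM TCEP, 0.005% BSG, 0.002% Tween20, 2% DMSO. Stopped with 600 uM cold SAM; 3H-peptide captured on streptavidin Flashplate; IC50 by curve fit.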
The term IC50 denotes the concentration that inhibits the measured activity by half. On to `C[C@H]1CN(CC(=O)N2CCNCC2)C[C@H]1NC(=O)c1cc(C2CC2)on1` (racemic) [compound 304, (±)-cis-5-cyclopropyl-N-{4-methyl-1-[2-oxo-2-(piperazin-1-yl)ethyl]pyrrolidin-3-yl}-1,2-oxazole-3-carboxamide], for which the IC50 is above 50 µM.

For `CCC[C@H]1CN(C(C)C)C[C@@H]1NC(=O)c1cc(C2CC2)on1` (racemic) [compound 151, (±)-trans-5-cyclopropyl-N-[1-(propan-2-yl)-4-propylpyrrolidin-3-yl]-1,2-oxazole-3-carboxamide], the IC50 was above 50 µM.

With `C[C@@H]1CN(CC(C)(C)C)C[C@H]1NC(=O)c1cc(C2CC2)on1` (racemic) [compound 130, (±)-trans-5-cyclopropyl-N-[(3S,4R)-1-(2,2-dimethylpropyl)-4-methylpyrrolidin-3-yl]-1,2-oxazole-3-carboxamide], the IC50 is above 50 µM.

With `C[C@@H]1CN(CC2CCC2)C[C@H]1NC(=O)c1cc(C2CC2)on1` (racemic) [compound 156, (±)-trans-N-[1-(cyclobutyl-methyl)-4-methylpyrrolidin-3-yl]-5-cyclopropyl-1,2-oxazole-3-carboxamide], the IC50 was above 50 µM.

For `C[C@@H]1CN(CCF)C[C@H]1NC(=O)c1cc(C2CC2)on1` (racemic) [compound 253, (±)-trans-5-cyclopropyl-N-[1-(2-fluoroethyl)-4-methylpyrrolidin-3-yl]-1,2-oxazole-3-carboxamide], the IC50 is above 50 µM.

Consider `C[C@@H]1CN(c2ccncc2)C[C@H]1NC(=O)c1cc(C2CC2)on1` (racemic) [compound 313, (±)-trans-5-cyclopropyl-N-[4-methyl-1-(pyridin-4-yl)pyrrolidin-3-yl]-1,2-oxazole-3-carboxamide], for which the IC50 is above 50 µM.

Consider `C[C@@H]1CN(Cc2ncc[nH]2)C[C@H]1NC(=O)c1cc(C2CC2)on1` (racemic) [compound 139, (±)-trans-5-cyclopropyl-N-[1-(1H-imidazol-2-ylmethyl)-4-methylpyrrolidin-3-yl]-1,2-oxazole-3-carboxamide], for which the IC50 was above 50 µM.

On to `CC(C)[C@H]1CN(C(C)C)C[C@@H]1NC(=O)c1cc(C2CC2)on1` (racemic) [compound 178, (±)-trans-N-[1,4-bis(propan-2-yl)pyrrolidin-3-yl]-5-cyclopropyl-1,2-oxazole-3-carboxamide], for which the IC50 was above 50 µM.

Consider `C[C@@H]1CN(Cc2cccnc2)C[C@H]1NC(=O)c1cc(C2CC2)on1` (racemic) [compound 124, (±)-trans-5-cyclopropyl-N-[4-methyl-1-(pyridin-3-ylmethyl)pyrrolidin-3-yl]-1,2-oxazole-3-carboxamide], for which the IC50 is above 50 µM.

On to `C[C@H]1CN(Cc2ccccc2)C[C@H]1NC(=O)c1cc(C2CC2)on1` (racemic) [compound 116, (±)-cis-N-([1-benzyl-4-methylpyrrolidin-3-yl)-5-cyclopropyl-1,2-oxazole-3-carboxamide], for which the IC50 came to 4.2 µM.

In the case of `C[C@@H]1CN(c2ncccn2)C[C@H]1NC(=O)c1cc(C2CC2)on1` (racemic) [compound 315, (±)-trans-5-cyclopropyl-N-[4-methyl-1-(pyrimidin-2-yl)pyrrolidin-3-yl]-1,2-oxazole-3-carboxamide], the IC50 was above 50 µM.

As for `CC(C)N1C[C@@H](C)[C@H](NC(=O)c2cc(C3CCC3)on2)C1` (racemic) [compound 249, (±)-trans-5-cyclobutyl-N-[4-methyl-1-(propan-2-yl)pyrrolidin-3-yl]-1,2-oxazole-3-carboxamide], the IC50 is above 50 µM.

Take `C[C@H]1CN(CC(=O)N(C)C)C[C@H]1NC(=O)c1cc(C2CC2)on1` (racemic) [compound 267, (±)-cis-5-cyclopropyl-N-[1-[(dimethyl-carbamoyl)methyl]-4-methylpyrrolidin-3-yl]-1,2-oxazole-3-carboxamide]: the 50% inhibitory concentration (IC50) is above 50 µM.

On to `CC(C)N1C[C@H](NC(=O)c2cc(C3CC3)on2)C[C@@H]1COCC#Cc1ccccc1` (stereo in doubt) [compound 238, (±)-cis-5-cyclopropyl-N-[5-{[(3-phenylprop-2-yn-1-yl)oxy]methyl}-1-(propan-2-yl)pyrrolidin-3-yl]-1,2-oxazole-3-carboxamide], for which the IC50 is 39.7 µM.

On to `C[C@H]1CN(c2cccnc2)C[C@H]1NC(=O)c1cc(C2CC2)on1` (racemic) [compound 336, (±)-cis-5-cyclopropyl-N-[4-methyl-1-(pyridin-3-yl)pyrrolidin-3-yl]-1,2-oxazole-3-carboxamide], for which the IC50 is above 50 µM.

`C[C@H]1CN(CC2CCNCC2)C[C@H]1NC(=O)c1cc(C2CC2)on1` (racemic) [compound 164, (±)-cis-5-cyclopropyl-N-[4-methyl-1-(piperidin-4-ylmethyl)pyrrolidin-3-yl]-1,2-oxazole-3-carboxamide]: the IC50 amounted to 4.78 µM.

With `CO[C@H]1CN(C)C[C@H]1NC(=O)c1cc(C2CC2)on1` (racemic) [compound 123, (±)-cis-5-cyclopropyl-N-(4-methoxy-1-methylpyrrolidin-3-yl)-1,2-oxazole-3-carboxamide], the IC50 was determined as 49.8 µM.

Regarding `CC(C)CCN1C[C@@H](C)[C@H](NC(=O)c2cc(C3CC3)on2)C1` (racemic) [compound 143, (±)-trans-5-cyclopropyl-N-[4-methyl-1-(3-methylbutyl)pyrrolidin-3-yl]-1,2-oxazole-3-carboxamide], the IC50 is above 50 µM.

In the case of `CCC[C@H]1CN(C)C[C@@H]1NC(=O)c1cc(C2CC2)on1` (racemic) [compound 150, (±)-trans-5-cyclopropyl-N-[1-methyl-4-propylpyrrolidin-3-yl]-1,2-oxazole-3-carboxamide], the IC50 is 44.9 µM.

Take `C[C@@H]1CN(Cc2cc([N+](=O)[O-])ccc2F)C[C@H]1NC(=O)c1cc(C2CC2)on1` (racemic) [compound 179, (±)-trans-5-cyclopropyl-N-[1-[(2-fluoro-5-nitrophenyl)methyl]-4-methylpyrrolidin-3-yl]-1,2-oxazole-3-carboxamide]: the IC50 was above 50 µM.

Consider `CC(c1ccccc1)N1C[C@H](C)[C@H](NC(=O)c2cc(C3CC3)on2)C1` (mixture of isomers) [compound 317, (±)-cis-5-cyclopropyl-N-[4-methyl-1-(1-phenyl-ethyl)pyrrolidin-3-yl]-1,2-oxazole-3-carboxamide], for which the IC50 was 1.14 µM.

Turning to `C[C@@H]1CN(Cc2ccnn2C)C[C@H]1NC(=O)c1cc(C2CC2)on1` (racemic) [compound 184, (±)-trans-5-cyclopropyl-N-[4-methyl-1-[(1-methyl-1H-pyrazol-5-yl)methyl]pyrrolidin-3-yl]-1,2-oxazole-3-carboxamide], the IC50 was above 50 µM.

As to `COc1cccc(CN2C[C@H](C)[C@H](NC(=O)c3cc(C4CC4)on3)C2)c1` (racemic) [compound 223, (±)-cis-5-cyclopropyl-N-[1-[(3-methoxy-phenyl)methyl]-4-methylpyrrolidin-3-yl]-1,2-oxazole-3-carboxamide], the IC50 stood at 4.96 µM.

On to `C[C@H]1CN(C(CO)c2ccccc2)C[C@H]1NC(=O)c1cc(C2CC2)on1` (relative stereo) [compound 330, cis-5-cyclopropyl-N-[1-(2-hydroxy-1-phenylethyl)-4-methyl-pyrrolidin-3-yl]-1,2-oxazole-3-carboxamide], for which the IC50 turned out to be 9.44 µM.

On to `C[C@H]1CN(CC(F)(F)F)C[C@H]1NC(=O)c1cc(C2CC2)on1` (racemic) [compound 262, (±)-cis-5-cyclopropyl-N-[4-methyl-1-(2,2,2-trifluoroethyl)pyrrolidin-3-yl]-1,2-oxazole-3-carboxamide], for which the IC50 was above 50 µM.

Staying with this assay, now noted: Table 1; average of n = 1 to n = 50; read-out: SMYD2 Biochem IC50.
As usually defined, the pIC50 is −log10 of the IC50, conventionally taken in molar units. As to `C[C@H]1CN(C2CC2)C[C@@H]1NC(=O)c1cc(C2CC2)no1` (racemic) [compound 50, (±)-trans-3-cyclopropyl-N-(1-cyclopropyl-4-methylpyrrolidin-3-yl)isoxazole-5-carboxamide], the pIC50 was below 4.30.

The same assay, now with this note: Table 2; average of n = 1 to n = 50; read-out: SMYD2 Biochem IC50.
For `C[C@@H]1CN(CCS(C)(=O)=O)C[C@H]1NC(=O)c1cc(C2CC2)on1` (racemic) [compound 100, (±)-trans-5-cyclopropyl-N-(4-methyl-1-(2-(methyl-sulfonyl)ethyl)pyrrolidin-3-yl)isoxazole-3-carboxamide], the pIC50 is below 4.30.

For `C[C@@H]1CN(S(C)(=O)=O)C[C@H]1NC(=O)c1cc(C2CC2)on1` (racemic) [compound 90, (±)-trans-5-cyclopropyl-N-(4-methyl-1-(methylsulfonyl)pyrrolidin-3-yl)isoxazole-3-carboxamide], the pIC50 is below 4.30.

As for `C[C@@H]1CN(C2CCN(C)CC2)C[C@H]1NC(=O)c1cc(C2CC2)on1` (racemic) [compound 105, (±)-trans-5-cyclopropyl-N-((3S,4R)-4-methyl-1-(1-methylpiperidin-4-yl)pyrrolidin-3-yl)isoxazole-3-carboxamide], the pIC50 was below 4.30.

As to `CC(=O)N1CCC(N2C[C@@H](C)[C@@H](NC(=O)c3cc(C4CC4)on3)C2)CC1` (racemic) [compound 83, (±)-cis-N-(1-(1-acetylpiperidin-4-yl)-4-methylpyrrolidin-3-yl)-5-cyclopropylisoxazole-3-carboxamide], the pIC50 is below 4.30.

Consider `C[C@H]1C[C@@H](NC(=O)c2cc(C3CC3)on2)CN1` (racemic) [compound 63, (±)-cis 5-cyclopropyl-N-(5-methylpyrrolidin-3-yl)isoxazole-3-carboxamide], for which the pIC50 was below 4.30.

Take `CC(=O)N1C[C@H](C)[C@H](NC(=O)c2cc(C3CC3)on2)C1` (racemic) [compound 111, (±)-cis-N-(1-acetyl-4-methylpyrrolidin-3-yl)-5-cyclopropylisoxazole-3-carboxamide]: the pIC50 was below 4.30.
